Experimental data taken from paper PMC6081437, “The potency of the broad spectrum bacteriocin, bactofencin A, against staphylococci is highly dependent on primary structure, N-terminal charge and disulphide formation” (Scientific Reports, 2018).
Bridge positions count the residues as written; N and C are the ends. Square brackets hold non-standard residues; d marks the D form. Peptide text beside a SMILES is read from it.

Test system: S. aureus DPC5246
Format: cell-based, Staphylococcus aureus
Settings: for Activity (Minimum Inhibitory Concentration, MIC): DPC5246, pH 6.8
Description: Peptides were resuspended at 1000 µM in 50 mM sodium phosphate buffer pH 6.8 and checked for purity by MALDI-TOF-MS. Peptides were serially diluted 1 in 4 to give a dilution series of 250, 62.50, 15.63, 3.91, 0.98 and 0.24 µM and assayed by the agar well diffusion assay described by Ryan et al.[19]. Briefly, 50 µl aliquots of each peptide concentration were plated on a S. aureus DPC5246 indicator plate and the plate incubated at 37 °C. Peptide activity (Minimum Inhibitory Concentration (MIC)) was taken as the lowest concentration of peptide to give a zone of inhibition. All assays were performed in triplicate. The dilution series values were rounded to the nearest whole number to give 1000, 250, 63, 16, 4, 1 and 0.25 µM and data is colour coded for ease of interpretation.

| Compound | Activity (Minimum Inhibitory Concentration, MIC) [µM] | activity compared with bactofencin A, in words (S. aureus DPC5246, agar well diffusion) |
| --- | --- | --- |
| CSCC[C@@H]1NC(=O)CNC(=O)[C@H]([C@@H](C)O)NC(=O)[C@@H]2CCCN2C(=O)[C@H](CCSC)NC(=O)CNC(=O)[C@H](C)NC(=O)[C@H](CC(N)=O)NC(=O)[C@H](Cc2ccc(O)cc2)NC(=O)[C@H](C(C)C)NC(=O)[C@H](CCCNC(=N)N)NC(=O)[C@@H](NC(=O)[C@H](CCCNC(=N)N)NC(=O)[C@H](Cc2c[nH]cn2)NC(=O)[C@H](CCCCN)NC(=O)[C@H](CCCCN)NC(=O)[C@H](CCCNC(=N)N)NC(=O)[C@@H](N)CCCCN)CSSC[C@@H](C(=O)O)NC(=O)[C@H](Cc2c[nH]c3ccccc23)NC(=O)[C@H](CCCNC(=N)N)NC(=O)[C@H](Cc2ccc(O)cc2)NC1=O [N12A] (H-KRKKHRCRVYNAGMPTGMYRWC-OH; disulfide 7-22) | 4 |  |
| CSCC[C@@H]1NC(=O)CNC(=O)[C@H]([C@@H](C)O)NC(=O)[C@@H]2CCCN2C(=O)[C@H](CCSC)NC(=O)CNC(=O)[C@@H](CC(N)=O)NC(=O)[C@H](CC(N)=O)NC(=O)[C@H](Cc2ccc(O)cc2)NC(=O)[C@H](C(C)C)NC(=O)[C@H](CCCNC(=N)N)NC(=O)[C@@H](NC(=O)[C@H](CCCNC(=N)N)NC(=O)[C@H](Cc2c[nH]cn2)NC(=O)[C@H](CCCCN)NC(=O)[C@H](CCCCN)NC(=O)[C@H](CCCNC(=N)N)NC(=O)[C@@H](N)CCCCN)CSSC[C@@H](C(=O)O)NC(=O)[C@H](Cc2c[nH]c3ccccc23)NC(=O)[C@H](CCCNC(=N)N)NC(=O)[C@H](Cc2ccc(O)cc2)NC1=O [N12Nd] (H-KRKKHRCRVYN[dN]GMPTGMYRWC-OH; disulfide 7-22; N-terminus assumed) | 4 |  |
| CSCC[C@@H]1NC(=O)CNC(=O)[C@H](CC(N)=O)NC(=O)[C@H](CC(N)=O)NC(=O)[C@H](Cc2ccc(O)cc2)NC(=O)[C@H](C(C)C)NC(=O)[C@H](CCCNC(=N)N)NC(=O)[C@@H](NC(=O)[C@H](CCCNC(=N)N)NC(=O)[C@H](Cc2c[nH]cn2)NC(=O)[C@H](CCCCN)NC(=O)[C@H](CCCCN)NC(=O)[C@H](CCCNC(=N)N)NC(=O)[C@@H](N)CCCCN)CSSC[C@@H](C(=O)O)NC(=O)[C@H](Cc2c[nH]c3ccccc23)NC(=O)[C@H](CCCNC(=N)N)NC(=O)[C@H](Cc2ccc(O)cc2)NC(=O)[C@H](CCSC)NC(=O)CNC(=O)[C@H]([C@@H](C)O)NC(=O)[C@H](C)NC1=O [P15A] (H-KRKKHRCRVYNNGMATGMYRWC-OH; disulfide 7-22) | 1 |  |
| CSCC[C@@H]1NC(=O)CNC(=O)[C@H]([C@@H](C)O)NC(=O)[C@H]2CCCN2C(=O)[C@H](CCSC)NC(=O)CNC(=O)[C@H](CC(N)=O)NC(=O)[C@H](CC(N)=O)NC(=O)[C@H](Cc2ccc(O)cc2)NC(=O)[C@H](C(C)C)NC(=O)[C@H](CCCNC(=N)N)NC(=O)[C@@H](NC(=O)[C@H](CCCNC(=N)N)NC(=O)[C@H](Cc2c[nH]cn2)NC(=O)[C@H](CCCCN)NC(=O)[C@H](CCCCN)NC(=O)[C@H](CCCNC(=N)N)NC(=O)[C@@H](N)CCCCN)CSSC[C@@H](C(=O)O)NC(=O)[C@H](Cc2c[nH]c3ccccc23)NC(=O)[C@H](CCCNC(=N)N)NC(=O)[C@H](Cc2ccc(O)cc2)NC1=O [P15Pd] (H-KRKKHRCRVYNNGM[dP]TGMYRWC-OH; disulfide 7-22; N-terminus assumed) | > 1000 |  |
| CSCC[C@@H]1NC(=O)CNC(=O)[C@H]([C@@H](C)O)NC(=O)[C@@H]2CCCN2C(=O)[C@H](CCSC)NC(=O)CNC(=O)[C@H](CC(N)=O)NC(=O)[C@H](CC(N)=O)NC(=O)[C@H](Cc2ccc(O)cc2)NC(=O)[C@H](C(C)C)NC(=O)[C@H](CCCNC(=N)N)NC(=O)[C@@H](NC(=O)[C@H](CCCNC(=N)N)NC(=O)[C@H](Cc2c[nH]cn2)NC(=O)[C@H](CCCCN)NC(=O)[C@H](CCCCN)NC(=O)[C@@H](N)CCCNC(=N)N)CSSC[C@@H](C(=O)O)NC(=O)[C@H](Cc2c[nH]c3ccccc23)NC(=O)[C@H](CCCNC(=N)N)NC(=O)[C@H](Cc2ccc(O)cc2)NC1=O [R2-C22] (H-RKKHRCRVYNNGMPTGMYRWC-OH; disulfide 6-21; N-terminus assumed) | 1 | no effect on activity |
| CSCC[C@@H]1NC(=O)CNC(=O)[C@H]([C@@H](C)O)NC(=O)[C@@H]2CCCN2C(=O)[C@H](CCSC)NC(=O)CNC(=O)[C@H](CC(N)=O)NC(=O)[C@H](CC(N)=O)NC(=O)[C@H](Cc2ccc(O)cc2)NC(=O)[C@H](C(C)C)NC(=O)[C@H](CCCNC(=N)N)NC(=O)[C@@H](NC(=O)[C@H](CCCNC(=N)N)NC(=O)[C@H](Cc2c[nH]cn2)NC(=O)[C@H](CCCCN)NC(=O)[C@H](CCCCN)NC(=O)[C@H](C)NC(=O)[C@@H](N)CCCCN)CSSC[C@@H](C(=O)O)NC(=O)[C@H](Cc2c[nH]c3ccccc23)NC(=O)[C@H](CCCNC(=N)N)NC(=O)[C@H](Cc2ccc(O)cc2)NC1=O [R2A] (H-KAKKHRCRVYNNGMPTGMYRWC-OH; disulfide 7-22) | 1 |  |
| CSCC[C@@H]1NC(=O)CNC(=O)[C@H]([C@@H](C)O)NC(=O)[C@@H]2CCCN2C(=O)[C@H](CCSC)NC(=O)CNC(=O)[C@H](CC(N)=O)NC(=O)[C@H](CC(N)=O)NC(=O)[C@H](Cc2ccc(O)cc2)NC(=O)[C@H](C(C)C)NC(=O)[C@H](CCCNC(=N)N)NC(=O)[C@@H](NC(=O)[C@@H](N)CCCNC(=N)N)CSSC[C@@H](C(=O)O)NC(=O)[C@H](Cc2c[nH]c3ccccc23)NC(=O)[C@H](CCCNC(=N)N)NC(=O)[C@H](Cc2ccc(O)cc2)NC1=O [R6-C22] (H-RCRVYNNGMPTGMYRWC-OH; disulfide 2-17; N-terminus assumed) | 63 |  |
| CSCC[C@@H]1NC(=O)CNC(=O)[C@H]([C@@H](C)O)NC(=O)[C@@H]2CCCN2C(=O)[C@H](CCSC)NC(=O)CNC(=O)[C@H](CC(N)=O)NC(=O)[C@H](CC(N)=O)NC(=O)[C@H](Cc2ccc(O)cc2)NC(=O)[C@H](C(C)C)NC(=O)[C@H](CCCNC(=N)N)NC(=O)[C@@H](NC(=O)[C@H](C)NC(=O)[C@H](Cc2c[nH]cn2)NC(=O)[C@H](CCCCN)NC(=O)[C@H](CCCCN)NC(=O)[C@H](CCCNC(=N)N)NC(=O)[C@@H](N)CCCCN)CSSC[C@@H](C(=O)O)NC(=O)[C@H](Cc2c[nH]c3ccccc23)NC(=O)[C@H](CCCNC(=N)N)NC(=O)[C@H](Cc2ccc(O)cc2)NC1=O [R6A] (H-KRKKHACRVYNNGMPTGMYRWC-OH; disulfide 7-22) | 1 |  |
| CSCC[C@@H]1NC(=O)CNC(=O)[C@H]([C@@H](C)O)NC(=O)[C@@H]2CCCN2C(=O)[C@H](CCSC)NC(=O)CNC(=O)[C@H](CC(N)=O)NC(=O)[C@H](CC(N)=O)NC(=O)[C@H](Cc2ccc(O)cc2)NC(=O)[C@H](C(C)C)NC(=O)[C@H](C)NC(=O)[C@@H](NC(=O)[C@H](CCCNC(=N)N)NC(=O)[C@H](Cc2c[nH]cn2)NC(=O)[C@H](CCCCN)NC(=O)[C@H](CCCCN)NC(=O)[C@H](CCCNC(=N)N)NC(=O)[C@@H](N)CCCCN)CSSC[C@@H](C(=O)O)NC(=O)[C@H](Cc2c[nH]c3ccccc23)NC(=O)[C@H](CCCNC(=N)N)NC(=O)[C@H](Cc2ccc(O)cc2)NC1=O [R8A] (H-KRKKHRCAVYNNGMPTGMYRWC-OH; disulfide 7-22) | 1 |  |
